# Data: paper PMC11714206, “Massively Parallel Screening of Toll/Interleukin‐1 Receptor (TIR)‐Derived Peptides Reveals Multiple Toll‐Like Receptors (TLRs)‐Targeting Immunomodulatory Peptides” (Advanced Science, 2024)
# Where “and” joins values, the source holds several entries; their conditions need not be identical. Equal entries are not always repeated.
# Columns and labels:
# MyD88^TIR = target: T1, MyD88^TIR (Homo sapiens, UniProt Q99836); experiment: T‐Surf phage library (P8 and P3) selection against MyD88^TIR, four rounds, NGS read counts; format: binding; settings: for Population: P3_MyD88 pool: P3 T-Surf phage library, 4th round of selection against MyD88 TIR, share of NGS reads; for Rank (after): P3_MyD88: rank by count after grouping; for Rank (before): P3_MyD88: rank by count before grouping; for P3_MyD88 Rank (after) / P3_MyD88 Rank (before): P3 library
# T1 construct: MyD88 (residues 148–296); 6xHis; made in house; host or cells: E. coli BL21 (DE3)
# Summary of the method: (§1)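 Read counts come from NGS of phage pools after the fourth selection round, barcoded by 20-cycle PCR and filtered for quality ≥30. Each round: phage incubated 1 h at RT on immobilised TIR protein (5 µg mL^−1, BSA-blocked), washed, HCl-eluted and amplified in E. coli TG1.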
# MAL^TIR = target: T2, MAL^TIR (Homo sapiens, UniProt P58753); experiment: T‐Surf phage library (P8 and P3) selection against MAL^TIR, four rounds, NGS read counts; format: binding; settings: for P3_MAL Rank (after) / P3_MAL Rank (before): P3 library; for Population: 4th round of selection against MAL TIR, share of NGS reads; for P8_MAL Rank (after) / P8_MAL Rank (before): P8 library
# T2 construct: MAL (residues 79–221); 6xHis; made in house; host or cells: E. coli BL21 (DE3)
# Summary of the method: as §1
# [1] = P3_MAL: rank by count after grouping
# [2] = P3_MAL: rank by count before grouping
# [3] = selection against MAL TIR, rank by count after grouping
# [4] = selection against MAL TIR, rank by count before grouping
# [5] = P3_MAL pool: P3 T-Surf phage library
# [6] = selection against MyD88, rank after grouping
# [7] = selection against MyD88, rank before grouping
# [8] = 4R selection against MAL, rank after grouping
# [9] = 4R selection against MAL, rank before grouping
# [10] = P8_MAL pool: P8 T-Surf phage library
# [11] = selection against MAL, rank after grouping
# [12] = selection against MAL, rank before grouping
# [13] = selection against MyD88 TIR, rank by count after grouping
# [14] = selection against MyD88 TIR, rank by count before grouping
# [15] = selection against MAL, rank by count after grouping
# [16] = selection against MAL, rank by count before grouping
# [17] = P8_MAL: rank by count after grouping
# [18] = P8_MAL: rank by count before grouping
# T1 sequence (Q99836 148-296): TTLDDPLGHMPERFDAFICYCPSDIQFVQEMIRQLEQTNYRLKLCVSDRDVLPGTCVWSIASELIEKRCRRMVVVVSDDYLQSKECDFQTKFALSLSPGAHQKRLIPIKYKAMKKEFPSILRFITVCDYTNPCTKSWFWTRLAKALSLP
# T2 sequence (P58753 79-221): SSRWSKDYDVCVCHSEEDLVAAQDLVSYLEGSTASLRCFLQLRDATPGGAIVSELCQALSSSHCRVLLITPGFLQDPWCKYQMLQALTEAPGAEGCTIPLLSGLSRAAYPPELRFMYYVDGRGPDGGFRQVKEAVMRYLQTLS
sequence,measurement,setting,value
YLKWGDPYFWSKLRYAM,Population,MyD88^TIR,0.00466%
same,Rank (after),MAL^TIR; [1],159
same,Rank (before),MAL^TIR; [2],519
NGHESEIIKEIWIPL,Rank (after),MyD88^TIR,407
same,Rank (before),MyD88^TIR,3358
same,Rank (after),MAL^TIR; [1],429
same,Rank (before),MAL^TIR; [2],3263
WFWDKLIYALSRNPH,Rank (after),MyD88^TIR,155
same,Rank (before),MyD88^TIR,549
same,P3_MAL Rank (after),MAL^TIR; [3],278
same,P3_MAL Rank (before),MAL^TIR; [4],712
SSFREGPWRLLELSKK,Population,MyD88^TIR,0.00466%
same,Population,MAL^TIR; [5],0.00338%
ARLPAICIVIWCSVA,Rank (after),MyD88^TIR,140
same,Rank (before),MyD88^TIR,935
same,Rank (after),MAL^TIR; [1],106
same,Rank (before),MAL^TIR; [2],170
LKVESWRDALTKVASL,Population,MyD88^TIR,0.0032%
same,Rank (after),MAL^TIR; [1],142
same,Rank (before),MAL^TIR; [2],847
AFLYTFLINLTHPTNF,P3_MyD88 Rank (after),MyD88^TIR; [6],537
same,P3_MyD88 Rank (before),MyD88^TIR; [7],1881
same,P3_MAL Rank (after),MAL^TIR; [8],588
same,P3_MAL Rank (before),MAL^TIR; [9],1798
same,Population,MAL^TIR; [10],0.00463% and 0.00432% and 0.00402% and 0.00371% and 0.0034% and 0.00309% and 0.00278%
KEVEGWRDALTAAANLSGW,Population,MyD88^TIR,0.00437%
same,Population,MAL^TIR; [5],0.00376%
same,Rank (after),MAL^TIR; [1],112
same,Rank (before),MAL^TIR; [2],177
LKVESWRQSREKAGKL,P3_MyD88 Rank (after),MyD88^TIR; [6],512
same,P3_MyD88 Rank (before),MyD88^TIR; [7],2480
same,P3_MAL Rank (after),MAL^TIR; [11],557
same,P3_MAL Rank (before),MAL^TIR; [12],2266
KMQKWKDALYEAANLSGW,Population,MyD88^TIR,0.00437%
same,Population,MAL^TIR; [5],0.0124%
same,Rank (after),MAL^TIR; [1],105
same,Rank (before),MAL^TIR; [2],109
YAFTGHLHRYLVQHCE,Rank (after),MyD88^TIR,169
same,Rank (before),MyD88^TIR,841
same,Rank (after),MAL^TIR; [1],115
same,Rank (before),MAL^TIR; [2],207
LKWGDPYFWSKLRFA,P3_MyD88 Rank (after),MyD88^TIR; [13],207
same,P3_MyD88 Rank (before),MyD88^TIR; [14],1061
same,Rank (after),MAL^TIR; [1],474
same,Rank (before),MAL^TIR; [2],2222
SSFREGLWRLLVLSKK,Population,MyD88^TIR,0.00437%
same,Population,MAL^TIR; [5],0.00338%
NQWRNALTAAANLNGW,Population,MyD88^TIR,0.00408%
same,Population,MAL^TIR; [5],0.00564%
YAFTGHLQRYLVHRGV,Rank (after),MyD88^TIR,120
same,Rank (before),MyD88^TIR,1532
same,P3_MAL Rank (after),MAL^TIR; [3],251
same,P3_MAL Rank (before),MAL^TIR; [4],1443
RNFVAYLFQALANKGI,P8_MyD88 Rank (after),"MyD88^TIR; P8 library, selection against MyD88, rank after grouping",483
same,P8_MyD88 Rank (before),"MyD88^TIR; P8 library, selection against MyD88, rank before grouping",3397
same,Population,MAL^TIR; [10],0.0034%
YTLLAICMMRCIVIV,P3_MyD88 Rank (after),"MyD88^TIR; selection against MyD88, rank by count after grouping",682
same,P3_MyD88 Rank (before),"MyD88^TIR; selection against MyD88, rank by count before grouping",1622
same,P3_MAL Rank (after),MAL^TIR; [15],751
same,P3_MAL Rank (before),MAL^TIR; [16],1535
KEVEGWRDALTKWRA,P3_MyD88 Rank (after),MyD88^TIR; [13],250
same,P3_MyD88 Rank (before),MyD88^TIR; [14],1304
same,P3_MAL Rank (after),MAL^TIR; [8],652
same,P3_MAL Rank (before),MAL^TIR; [9],3567
WFLFTVRSATYTMSPA,P8_MAL Rank (after),MAL^TIR; [3],220
same,P8_MAL Rank (before),MAL^TIR; [4],1338
WFYERLLSLVLRDTKV,Rank (after),MAL^TIR; [17],176
same,Rank (before),MAL^TIR; [18],1248
NQWRNSLTAAANLRGW,Rank (after),MAL^TIR; [1],173
same,Rank (before),MAL^TIR; [2],3340
SFYEPQVKMVLRNTTM,P8_MAL Rank (after),MAL^TIR; [3],282
same,P8_MAL Rank (before),MAL^TIR; [4],1446
SSCLEGLWRLLELSKK,Rank (after),MAL^TIR; [1],476
same,Rank (before),MAL^TIR; [2],3209
RWFLDELVKIMERKRT,P8_MAL Rank (after),MAL^TIR; [3],218
same,P8_MAL Rank (before),MAL^TIR; [4],926
YAFTGHLRRYLLRRSV,Rank (after),MAL^TIR; [1],439
same,Rank (before),MAL^TIR; [2],1372
WFYERLLNLILRDTKV,Rank (after),MAL^TIR; [17],96
same,Rank (before),MAL^TIR; [18],1250
KSILDTEARIWAGVR,P3_MAL Rank (after),MAL^TIR; [15],695
same,P3_MAL Rank (before),MAL^TIR; [16],3728
RLLNWKEARHQFHSWV,P3_MAL Rank (after),MAL^TIR; [3],243
same,P3_MAL Rank (before),MAL^TIR; [4],2479
GCLYQAFARAGFKIFM,P3_MAL Rank (after),MAL^TIR; [15],707
same,P3_MAL Rank (before),MAL^TIR; [16],1752
SFFWNKLRYHLQAKDH,P3_MAL Rank (after),MAL^TIR; [11],572
same,P3_MAL Rank (before),MAL^TIR; [12],3010
KMQKWKDALTKVASL,P3_MAL Rank (after),MAL^TIR; [8],673
same,P3_MAL Rank (before),MAL^TIR; [9],3697
WFWDKLKYALPHRYEP,Rank (after),MAL^TIR; [17],113
same,Rank (before),MAL^TIR; [18],556
NGHESELIKEIVVTIV,P3_MAL Rank (after),MAL^TIR; [8],647
same,P3_MAL Rank (before),MAL^TIR; [9],3257
AFLDPFLITLIQASNF,P8_MAL Rank (after),MAL^TIR; [11],505
same,P8_MAL Rank (before),MAL^TIR; [12],1908
KSILDTEARIWGWLFA,P3_MAL Rank (after),MAL^TIR; [3],248
same,P3_MAL Rank (before),MAL^TIR; [4],3718
TFLGHLYNALVQAGIP,Population,MAL^TIR; [10],0.00463%
HLLDKLRSNGISPFID,Rank (after),MAL^TIR; [1],461
same,Rank (before),MAL^TIR; [2],2772
LQNQWRNALTAAANLSGW,Rank (after),MAL^TIR; [1],422
same,Rank (before),MAL^TIR; [2],2140
AFFWEQMRTVLGKPTT,P8_MAL Rank (after),MAL^TIR; [8],612
same,P8_MAL Rank (before),MAL^TIR; [9],1710
MSQRYQGLKNRGIFTF,P3_MAL Rank (after),MAL^TIR; [8],663
same,P3_MAL Rank (before),MAL^TIR; [9],2959
LKWGDPYFWSNCVMR,P3_MAL Rank (after),MAL^TIR; [15],699
same,P3_MAL Rank (before),MAL^TIR; [16],2216
WQFHLRLRMHELLQKM,P3_MAL Rank (after),MAL^TIR; [3],245
same,P3_MAL Rank (before),MAL^TIR; [4],1314
